From US12012390B2, “Flavone compounds for the treatment and prophylaxis of hepatitis B virus disease” (priority 2018, dated 2024)

System: HBeAg level (surrogate marker for cccDNA) in HepDES19 cells
Assay: Engineered HepDES19 primary screen assay (HBeAg as surrogate marker for cccDNA)
Type: cell-based, HBV
Details: Hepatitis B virus, HepDES19, 120 h, read-out: IC50 (HBeAg) in HepDES19 primary screen assay, HepDES19 cells, 5 days incubation with compound, HBeAg by ELISA
Summary of the method: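 HepDES19 cells were induced by Tet withdrawal for 8 days, then exposed to half-log compound dilutions (1% DMSO) for 5 days at 37° C. HBeAg, a cccDNA surrogate, was measured by ELISA; viability by CCK-8. IC50 from 4-parameter logistic fit.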

**Q.** How did the IC50 turn out when `O=C(O)C1CC(OCCOc2ccc(-c3cc(=O)c4cccc(Cl)c4o3)cc2)C1` (stereo not shown) [Example 1, 3-[2-[4-(8-chloro-4-oxo-chromen-2-yl)phenoxy]ethoxy]cyclobutanecarboxylic acid] was run?
**A.** Its IC50 is 140 nM.
